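Cells were grown in 96-well plates and exposed to each compound for 48 hours at five concentrations; endpoints were interpolated linearly between bracketing concentrations, or set to the highest concentration if not reached. GI50 is the concentration that inhibits growth by half.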 Activity calls are given as the source filed them. No stated cut-off is given here; in the data, active = GI50 up to about 1.1 µM and inactive = higher.
Key:
Assay in all cases: growth of human tumour cells (NCI), 48 h
A498 = tested on: A498
DU-145 = tested on: DU-145
HCT-116 = tested on: HCT-116
HCT-15 = tested on: HCT-15
KM12 = tested on: KM12
LOX IMVI = tested on: LOX IMVI
M14 = tested on: M14
MCF7 = tested on: MCF7
MDA-N = tested on: MDA-N
MOLT-4 = tested on: MOLT-4
NCI-H522 = tested on: NCI-H522
OVCAR-3 = tested on: OVCAR-3
OVCAR-4 = tested on: OVCAR-4
RPMI-8226 = tested on: RPMI-8226
SF-295 = tested on: SF-295
SK-MEL-28 = tested on: SK-MEL-28
SK-MEL-2 = tested on: SK-MEL-2
TK-10 = tested on: TK-10
UACC-62 = tested on: UACC-62
HCC 2998 = tested on: HCC 2998

Compound	GI50 (A498)	GI50 (DU-145)	GI50 (HCT-116)	GI50 (HCT-15)	GI50 (KM12)	GI50 (LOX IMVI)	GI50 (M14)	GI50 (MCF7)	GI50 (MDA-N)	GI50 (MOLT-4)	GI50 (NCI-H522)	GI50 (OVCAR-3)	GI50 (OVCAR-4)	GI50 (RPMI-8226)	GI50 (SF-295)	GI50 (SK-MEL-28)	GI50 (SK-MEL-2)	GI50 (TK-10)	GI50 (UACC-62)	GI50 (HCC 2998)
Cc1ncc(C/N=C/c2ccc(Cl)cc2)c(N)n1	> 100 µM (inactive)	> 100 µM (inactive)	> 100 µM (inactive)	> 100 µM	> 100 µM (inactive)	> 100 µM (inactive)	> 100 µM (inactive)	> 100 µM (inactive)	> 100 µM (inactive)	> 100 µM (inactive)	> 100 µM (inactive)	> 100 µM (inactive)	> 100 µM (inactive)	> 100 µM (inactive)	> 100 µM (inactive)	> 100 µM (inactive)	> 100 µM (inactive)	> 100 µM (inactive)	> 100 µM (inactive)	
Cc1cc2nc3c(C#N)c4c(c(-c5ccc(Cl)cc5)n3c2cc1C)CCC4	28.1 µM (inactive)	20.9 µM (inactive)	18.7 µM (inactive)	27.9 µM	22 µM (inactive)	30.2 µM (inactive)	17.5 µM (inactive)	33.1 µM (inactive)	28.8 µM (inactive)	25.1 µM (inactive)	18.7 µM (inactive)	20.3 µM (inactive)	38.5 µM (inactive)	26.5 µM (inactive)	17.2 µM (inactive)	23.7 µM (inactive)	19 µM (inactive)	22.1 µM (inactive)	18.4 µM (inactive)	
O=[N+]([O-])c1ccc(C(Nc2ccccc2)P(c2ccccc2)c2ccccc2)cc1 (stereo not given)	> 100 µM (inactive)	> 100 µM (inactive)	8.81 µM (inactive)	> 100 µM	> 100 µM (inactive)	> 100 µM (inactive)	> 100 µM (inactive)	> 100 µM (inactive)	> 100 µM (inactive)	24.1 µM (inactive)	> 100 µM (inactive)		> 100 µM (inactive)		44.7 µM (inactive)	> 100 µM (inactive)	> 100 µM (inactive)	> 100 µM (inactive)	> 100 µM (inactive)	
CSc1nc(=O)cnn1C		> 100 µM (inactive)	> 100 µM (inactive)	> 100 µM	> 100 µM (inactive)		> 100 µM (inactive)	> 100 µM (inactive)	> 100 µM (inactive)	> 100 µM (inactive)	> 100 µM (inactive)	> 100 µM (inactive)	> 100 µM (inactive)	> 100 µM (inactive)	> 100 µM (inactive)	> 100 µM (inactive)	> 100 µM (inactive)	> 100 µM (inactive)	> 100 µM (inactive)	> 100 µM (inactive)
CNC(=O)CCCNC(=O)CCCCC(=O)N(C)C	> 100 µM (inactive)	> 100 µM (inactive)	> 100 µM (inactive)		> 100 µM (inactive)		> 100 µM (inactive)	> 100 µM (inactive)	> 100 µM (inactive)	89.5 µM (inactive)	> 100 µM (inactive)	> 100 µM (inactive)	> 100 µM (inactive)	> 100 µM (inactive)	> 100 µM (inactive)	> 100 µM (inactive)	> 100 µM (inactive)	> 100 µM (inactive)	> 100 µM (inactive)	
CCC(O)CC1OC2(CCC1C)CC1OC(=O)/C=C\C(C)(O)C(O)C(C)C(O)C(OC3CC(OC)C(O)C(C)O3)C(O)C(C)(O)CCC/C=C/C3CC(C)COC3(O)CC(O2)C1C (stereo not given)	3.82 µM (inactive)	2.67 µM (inactive)	5.08 µM (inactive)	9.62 µM	2.43 µM (inactive)	11.8 µM (inactive)	6.97 µM (inactive)	< 0.01 µM (active)	2.05 µM (inactive)	0.335 µM (active)		0.585 µM (active)		< 0.01 µM (active)	< 0.016 µM (active)	13.8 µM (inactive)	4.98 µM (inactive)	1.6 µM (inactive)	9.04 µM (inactive)	15.7 µM (inactive)
N#Cc1c(N2CCCC2)nsc1Nc1ccc(F)cc1	> 100 µM (inactive)	> 100 µM (inactive)	> 100 µM (inactive)	> 100 µM	> 100 µM (inactive)	> 100 µM (inactive)	> 100 µM (inactive)		> 100 µM (inactive)	> 100 µM (inactive)	57.9 µM (inactive)	> 100 µM (inactive)	> 100 µM (inactive)	> 100 µM (inactive)	> 100 µM (inactive)	> 100 µM (inactive)	> 100 µM (inactive)	> 100 µM (inactive)	> 100 µM (inactive)	> 100 µM (inactive)
C/C(=N\NC(=S)N/N=C(\C)c1ccccn1)c1ccccn1	6.03 µM (inactive)	3.62 µM (inactive)	1.84 µM (inactive)	0.627 µM	1.28 µM (inactive)	0.859 µM (active)	1.27 µM (inactive)	1.85 µM (inactive)	5.4 µM (inactive)	1.31 µM (inactive)	6.49 µM (inactive)	0.656 µM (active)	1.04 µM (active)	2.54 µM (inactive)	1.57 µM (inactive)	8.36 µM (inactive)		> 100 µM (inactive)	1.71 µM (inactive)	
Cc1cc2c(-c3ccccc3)cc(=O)[nH]c2cc1N	> 100 µM (inactive)	> 100 µM (inactive)	> 100 µM (inactive)	> 100 µM	> 100 µM (inactive)	> 100 µM (inactive)	> 100 µM (inactive)	> 100 µM (inactive)	> 100 µM (inactive)	> 100 µM (inactive)		> 100 µM (inactive)	> 100 µM (inactive)	> 100 µM (inactive)	> 100 µM (inactive)	> 100 µM (inactive)	> 100 µM (inactive)		> 100 µM (inactive)	> 100 µM (inactive)
CCCC(CCC(N)=O)(CCC(N)=O)[N+](=O)[O-]		> 100 µM (inactive)	> 100 µM (inactive)	> 100 µM	> 100 µM (inactive)		> 100 µM (inactive)	> 100 µM (inactive)	> 100 µM (inactive)	> 100 µM (inactive)	26.5 µM (inactive)			> 100 µM (inactive)	> 100 µM (inactive)		> 100 µM (inactive)	> 100 µM (inactive)	> 100 µM (inactive)	
COc1ccc2c(c1)C(=O)[C@@](Nc1ccc(C=O)cc1)(OC)[C@@](OC)(c1ccc([N+](=O)[O-])cc1)O2	> 10 µM (inactive)	> 10 µM (inactive)	> 10 µM (inactive)	> 10 µM	> 10 µM (inactive)	> 10 µM (inactive)	> 10 µM (inactive)	> 10 µM (inactive)	> 10 µM (inactive)	> 10 µM (inactive)		> 10 µM (inactive)	> 10 µM (inactive)	> 10 µM (inactive)	> 10 µM (inactive)	> 10 µM (inactive)	> 10 µM (inactive)	> 10 µM (inactive)	> 10 µM (inactive)	> 10 µM (inactive)
O=C1c2ccccc2-c2nc3ccncc3n21		51.5 µM (inactive)	30.5 µM (inactive)	> 100 µM	> 100 µM (inactive)			> 100 µM (inactive)	31.1 µM (inactive)	> 100 µM (inactive)	> 100 µM (inactive)	> 100 µM (inactive)	> 100 µM (inactive)	> 100 µM (inactive)	> 100 µM (inactive)	> 100 µM (inactive)	> 100 µM (inactive)	> 100 µM (inactive)	> 100 µM (inactive)	> 100 µM (inactive)
COc1ccc(C2Oc3ccc(Cl)cc3C=C2[N+](=O)[O-])cc1 (stereo not given)		> 100 µM (inactive)	> 100 µM (inactive)	> 100 µM	> 100 µM (inactive)	> 100 µM (inactive)	> 100 µM (inactive)	> 100 µM (inactive)	> 100 µM (inactive)	> 100 µM (inactive)	> 100 µM (inactive)	> 100 µM (inactive)	> 100 µM (inactive)	> 100 µM (inactive)	> 100 µM (inactive)	> 100 µM (inactive)		> 100 µM (inactive)	> 100 µM (inactive)	
CC(=O)C(C)(C)CCC(C)(C)C(C)=O		> 100 µM (inactive)	> 100 µM (inactive)	> 100 µM	> 100 µM (inactive)	> 100 µM (inactive)	> 100 µM (inactive)	> 100 µM (inactive)	> 100 µM (inactive)	> 100 µM (inactive)	> 100 µM (inactive)		> 100 µM (inactive)		> 100 µM (inactive)	> 100 µM (inactive)	> 100 µM (inactive)	> 100 µM (inactive)	> 100 µM (inactive)	> 100 µM (inactive)
O=C(O)CCC(=O)c1ccc[nH]1	> 100 µM (inactive)	> 100 µM (inactive)	> 100 µM (inactive)	> 100 µM	> 100 µM (inactive)	> 100 µM (inactive)	> 100 µM (inactive)	> 100 µM (inactive)	> 100 µM (inactive)	> 100 µM (inactive)	> 100 µM (inactive)	> 100 µM (inactive)	> 100 µM (inactive)	> 100 µM (inactive)	> 100 µM (inactive)		> 100 µM (inactive)	> 100 µM (inactive)	> 100 µM (inactive)	
C1=C(CC2=C[P+](c3ccccc3)(c3ccccc3)C=C(c3ccccc3)O2)OC(c2ccccc2)=C[P+]1(c1ccccc1)c1ccccc1	0.716 µM (active)	0.482 µM (active)	0.332 µM (active)	1.63 µM	0.325 µM (active)	0.431 µM (active)	0.573 µM (active)	0.392 µM (active)	0.337 µM (active)	0.489 µM (active)		0.32 µM (active)		0.18 µM (active)	0.566 µM (active)	0.724 µM (active)		0.475 µM (active)		

From ChEMBL document CHEMBL1201862, “PubChem BioAssay data set” (2004)
